In this assay the target is T1, HCMV polymerase (Human cytomegalovirus, UniProt P08546).
T1 construct: made in house; host or cells: recombinant baculovirus-infected SF-9 cells
T1 sequence (P08546 whole entry): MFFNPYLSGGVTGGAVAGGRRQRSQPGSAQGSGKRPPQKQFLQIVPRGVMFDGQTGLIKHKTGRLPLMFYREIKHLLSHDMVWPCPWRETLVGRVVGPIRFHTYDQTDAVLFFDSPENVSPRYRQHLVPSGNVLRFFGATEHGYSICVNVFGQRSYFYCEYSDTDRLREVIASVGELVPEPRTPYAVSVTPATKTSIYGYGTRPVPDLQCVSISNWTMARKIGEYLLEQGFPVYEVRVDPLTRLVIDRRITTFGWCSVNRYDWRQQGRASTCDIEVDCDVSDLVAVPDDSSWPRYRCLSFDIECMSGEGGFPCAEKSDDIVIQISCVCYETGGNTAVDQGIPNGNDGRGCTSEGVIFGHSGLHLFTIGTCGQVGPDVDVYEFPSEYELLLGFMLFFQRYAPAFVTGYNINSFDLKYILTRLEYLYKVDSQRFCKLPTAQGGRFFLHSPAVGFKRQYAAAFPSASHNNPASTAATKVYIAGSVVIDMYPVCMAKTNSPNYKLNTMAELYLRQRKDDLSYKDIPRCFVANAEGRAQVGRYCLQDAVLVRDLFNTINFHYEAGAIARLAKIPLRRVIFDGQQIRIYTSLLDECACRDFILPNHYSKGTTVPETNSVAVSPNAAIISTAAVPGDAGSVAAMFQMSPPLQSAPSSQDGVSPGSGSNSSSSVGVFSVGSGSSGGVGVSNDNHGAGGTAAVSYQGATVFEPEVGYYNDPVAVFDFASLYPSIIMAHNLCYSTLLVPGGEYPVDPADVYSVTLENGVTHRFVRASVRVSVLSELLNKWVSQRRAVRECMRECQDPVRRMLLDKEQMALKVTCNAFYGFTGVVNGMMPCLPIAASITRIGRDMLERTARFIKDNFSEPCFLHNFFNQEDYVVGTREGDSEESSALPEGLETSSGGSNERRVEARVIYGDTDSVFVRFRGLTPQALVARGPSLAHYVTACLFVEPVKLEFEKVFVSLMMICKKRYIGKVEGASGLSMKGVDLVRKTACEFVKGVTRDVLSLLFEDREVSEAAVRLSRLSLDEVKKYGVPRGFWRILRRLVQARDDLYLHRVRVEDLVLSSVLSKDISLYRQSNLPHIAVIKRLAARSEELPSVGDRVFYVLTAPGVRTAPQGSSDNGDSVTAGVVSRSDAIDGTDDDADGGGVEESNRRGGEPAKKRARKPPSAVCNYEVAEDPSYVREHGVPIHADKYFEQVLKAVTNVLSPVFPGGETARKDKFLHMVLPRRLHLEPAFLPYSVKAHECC
The assay can be described thus: HCMV polymerase scintillation proximity assay (SPA), modified version. The format is biochemical. Particulars: CMV polymerase; Table 1; modified assay with 4.5 mM DTT, compounds in 100% DMSO; read-out: Antiviral Selective Polymerase IC50 Values, CMV. Here is the method:
The HCMV polymerase assay is performed using a scintillation proximity assay (SPA) as described in several references, such as N. D. Cook, et al., Pharmaceutical Manufacturing International, pages 49-53 (1992); K. Takeuchi, Laboratory Practice, September issue (1992); U.S. Pat. No. 4,568,649 (1986); which are incorporated by reference herein. Reactions are performed in 96-well plates. The assay is conducted in 100 μl volume with 5.4 mM HEPES (pH 7.5), 11.7 mM KCl, 4.5 mM MgCl2, 0.36 mg/ml BSA, and 90 nM ^3 H-dTTP. Assays are run with and without CHAPS, (3-[(3-Cholamidopropyl)-dimethylammonio]-1-propane-sulfonate) at a final concentration of 2 mM. HCMV polymerase is diluted in enzyme dilution buffer containing 50% glycerol, 250 mM NaCl, 10 mM HEPES (pH 7.5), 100 μg/ml BSA, and 0.01% sodium azide. The HCMV polymerase, which is expressed in recombinant baculovirus-infected SF-9 cells and purified according to literature procedures, is added at 10% (or 10 μl) of the final reaction volume, i.e., 100 μl. Compounds are diluted in 50% DMSO and 10 μl are added to each well. Control wells contain an equivalent concentration of DMSO. Unless noted otherwise, reactions are initiated via the addition of 6 nM biotinylated poly(dA)-oligo(dT) template/primer to reaction mixtures containing the enzyme, substrate, and compounds of interest. Plates are incubated in a 25° C. or 37° C. H2 O bath and terminated via the addition of 40 μl/reaction of 0.5 M EDTA (pH 8) per well. Reactions are terminated within the time-frame during which substrate incorporation is linear and varied depending upon the enzyme and conditions used, i.e., 30 min. for HCMV polymerase. Ten μl of streptavidin-SPA beads (20 mg/ml in PBS/10% glycerol) are added following termination of the reaction. Plates are incubated 10 min. at 37° C., then equilibrated to room temperature, and counted on a Packard Topcount. Linear regressions are performed and IC50 's are calculated using computer software.
A modified version of the above HCMV polymerase assay is performed as described above, but with the following changes: Compounds are diluted in 100% DMSO until final dilution into assay buffer. In the previous assay, compounds are diluted in 50% DMSO. 4.5 mM dithiotherotol (DTT) is added to the polymerase buffer. […] Other viral polymerase assays are performed using procedures similar to those described above.
On the technique in general: SPA uses beads or plates that emit light when radiolabelled molecules are held near them.
What is called IC50 is the midpoint of a concentration-inhibition curve. As for `O=C(NCc1ccc(Cl)cc1)c1cnc2cc(Cl)ccc2c1O` [Example 56, 7-Chloro-N-((4-chlorophenyl)methyl)-4-hydroxy-3-quinoline-carboxamide], the concentration for half-maximal inhibition (IC50) amounted to 3.1 µM.
The same measure for `O=C(NCc1ccc(Cl)cc1)c1cnc2ccc(Br)cc2c1O` [Example 57, 6-Bromo-N-((4-chlorophenyl)methyl)-4-hydroxy-3-quinoline-carboxamide]: 5.2 µM; for `O=C(NCc1ccc(Cl)cc1)c1cnc2ccc(-c3ccccc3)cc2c1O` [Example 58, N-((4-Chlorophenyl)methyl)-4-hydroxy-6-phenyl-3-quinoline-carboxamide]: 1 µM; for `O=C(NCc1ccc(Cl)cc1)c1cnc2c(Cl)ccc(C(F)(F)F)c2c1O` [Example 59, 8-Chloro-N-((4-chlorophenyl)methyl)-4-hydroxy-5-trifluoro-methyl-3-quinolinecarboxamide]: 33.1 µM.
The figure for `COc1cc(OC)c2ncc(C(=O)NCc3ccc(Cl)cc3)c(O)c2c1` [Example 60, N-((4-Chlorophenyl)methyl)-4-hydroxy-6,8-dimethoxy-3-quinolinecarboxamide] is 4 µM; for `COc1cc2ncc(C(=O)NCc3ccc(Cl)cc3)c(O)c2cc1OC` [Example 61, N-((4-Chlorophenyl)methyl)-4-hydroxy-6,7-dimethoxy-3-quinolinecarboxamide] it is 3.1 µM; for `Cc1cccc2ncc(C(=O)NCc3ccc(Cl)cc3)c(O)c12` [Example 62, N-((4-Chlorophenyl)methyl)-4-hydroxy-5-methyl-3-quinoline-carboxamide] it is 4.6 µM.
As for `CC(C)(C)c1ccc2ncc(C(=O)NCc3ccc(Cl)cc3)c(O)c2c1` [Example 63, N-[(4-Chlorophenyl)methyl]-6-(1,1-dimethylethyl)-4-hydroxy-3-quinolinecarboxamide], the IC50 amounted to 7 µM.
For the compound `O=C(NCc1ccc(Cl)cc1)c1cnc2cc3c(cc2c1O)CCC3` [Example 64, N-[(4-Chlorophenyl)methyl]-7,8-dihydro-4-hydroxy-6H-cyclopent a[g]quinoline-3-carboxamide], the concentration for half-maximal inhibition (IC50) was 8.5 µM.
The figure for `CSc1cccc2c(=O)c(C(=O)NCc3ccc(Cl)cc3)c[nH]c12` [Example 65, N-[(4-Chlorophenyl)methyl]-1,4-dihydro-8-(methylthio)-4-oxo-3-quinolinecarboxamide] is 3.3 µM; for `O=C(NCc1ccc(Cl)cc1)c1cnc2ccc3ncsc3c2c1O` [Example 66, N-[(4-Chlorophenyl)methyl]-9-hydroxythiazolo[5,4-f]quinoline-8-carboxamide] it is 0.29 µM; for `O=C(NCc1ccc(Cl)cc1)c1cnc2cc(C(F)(F)F)c(SCc3ccccc3)cc2c1O` [Example 72, N-[(4-Chlorophenyl)methyl]-4-hydroxy-6-[(phenylmethyl)thio]-7-(trifluoromethyl)-3-quinolinecarboxamide] it is 9.4 µM.
The same measure for `O=C(NCc1ccc(Cl)cc1)c1cnc2cccc(C(F)(F)F)c2c1O` [Example 76, N-((4-Chlorophenyl)methyl)-4-hydroxy-5-trifluoromethyl-3-quinolinecarboxamide]: 5.2 µM; for `Cc1ccccc1-c1cc(F)c2ncc(C(=O)NCc3ccc(Cl)cc3)c(O)c2c1` [Example 77, N-((4-Chlorophenyl)methyl)-8-fluoro-4-hydroxy-6-(2-methyl-phenyl)-3-quinolinecarboxamide]: 4 µM.
The same measure for `O=C(NCc1ccc(Cl)cc1)c1cnc2c(OC3CCOCC3)c(F)c(F)cc2c1O` [Example 78, N-((4-Chlorophenyl)methyl)-6,7-difluoro-4-hydroxy-8-(tetrahydro-2H-pyran-4-oxy)-3-quinolinecarboxamide]: 0.71 µM; for `COc1c(F)c(F)cc2c(O)c(C(=O)NCc3ccc(Cl)cc3)cnc12` [Example 79, N-((4-Chlorophenyl)methyl)-6,7-difluoro-4-hydroxy-8-methoxy-3-quinolinecarboxamide]: 0.96 µM; for `COc1c(F)cc2c(O)c(C(=O)NCc3ccc(Cl)cc3)cnc2c1OC` [Example 80, N-((4-Chlorophenyl)methyl)-7,8-dimethoxy-6-fluoro-4-hydroxy-3-quinolinecarboxamide]: 2.4 µM.
In the case of `O=C(NCc1ccc(Cl)cc1)c1cnc2c(F)c(Oc3ccc(CO)cc3)c(F)cc2c1O` [Example 81, N-((4-Chlorophenyl)methyl)-6,8-difluoro-4-hydroxy-7-(4-(hydroxymethyl)phenoxy)-3-quinolinecarboxamide], the concentration for half-maximal inhibition (IC50) stood at 7.8 µM.
Take `COc1c(F)cc2c(O)c(C(=O)NCc3ccc(Cl)cc3)cnc2c1F` [Example 82, N-((4-Chlorophenyl)methyl)-6,8-difluoro-4-hydroxy-7-methoxy-3-quinolinecarboxamide]: the IC50 was found to be 2.5 µM.
The same measure for `COCCOc1c(F)cc2c(O)c(C(=O)NCc3ccc(Cl)cc3)cnc2c1F` [Example 83, N-((4-Chlorophenyl)methyl)-6,8-difluoro-4-hydroxy-7-(2-(methoxy)ethoxy)-3-quinolinecarboxamide]: 4.3 µM; for `COCCOc1c(F)c(F)cc2c(O)c(C(=O)NCc3ccc(Cl)cc3)cnc12` [Example 84, N-((4-Chlorophenyl)methyl)-6,7-difluoro-4-hydroxy-8-(2-(methoxy)ethoxy)-3-quinolinecarboxamide]: 0.79 µM.
The figure for `COCCOc1c(F)cc2c(O)c(C(=O)NCc3ccc(Cl)cc3)cnc2c1OCCOC` [Example 85, N-((4-Chlorophenyl)methyl)-6-fluoro-7,8-di(2-(methoxy)ethoxy)-4-hydroxy-3-quinolinecarboxamide] is 18.1 µM; for `CC(C)Oc1c(F)cc2c(O)c(C(=O)NCc3ccc(Cl)cc3)cnc2c1F` [Example 86, N-((4-Chlorophenyl)methyl)-6,8-difluoro-4-hydroxy-7-(1-methylethoxy)-3-quinolinecarboxamide] it is 10.7 µM.
The same measure for `O=C(NCc1ccc(Cl)cc1)c1cnc2c(F)cc(-c3nccs3)cc2c1O` [Example 87, N-(4-Chlorobenzyl)-8-fluoro-4-hydroxy-6-(1,3-thiazol-2-yl)-3-quinolinecarboxamide]: 7.9 µM; for `COCCNc1c(F)cc2c(O)c(C(=O)NCc3ccc(Cl)cc3)cnc2c1F` [Example 88, N-(4-Chlorobenzyl)-6,8-difluoro-4-hydroxy-7-[(2-methoxyethyl)amino]-3-quinolinecarboxamide]: 30.3 µM.
Consider `N#CCCCC#Cc1cc(F)c2ncc(C(=O)NCc3ccc(Cl)cc3)c(O)c2c1` [Example 89, N-(4-Chlorobenzyl)-6-(5-cyano-1-pentynyl)-8-fluoro-4-hydroxy-3-quinolinecarboxamide], for which the IC50 is 7.2 µM.
`O=C(NCc1ccc(Cl)cc1)c1cnc2c(F)cc(-c3ccccn3)cc2c1O` [Example 90, N-(4-Chlorobenzyl)-8-fluoro-4-hydroxy-6-(2-pyridinyl)-3-quinolinecarboxamide]: the half-maximal inhibitory concentration (IC50) is 2.9 µM.
The figure for `O=C(NNc1ccc(Cl)cc1)c1cnc2ccc(I)cc2c1O` [Example 91, 4-Hydroxy-6-iodo-3-quinolinecarboxylic acid 2-(4-chlorophenyl)hydrazide] is 3.8 µM; for `O=C(NCc1ccc(Cl)cc1)c1cnc2c(F)cc(C#Cc3ccccn3)cc2c1O` [Example 92, N-(4-Chlorobenzyl)-8-fluoro-4-hydroxy-6-[2-(2-pyridinyl)ethynyl]-3-quinolinecarboxamide] it is 20.6 µM.

(Values after US6093732A, “4-hydroxyquinoline-3-carboxamides and hydrazides as antiviral agents” (Pharmacia & Upjohn Company, priority 1998, dated 2000).)
